Experimental data taken from patent US20240253033A1, “MICROFLUIDIC DETECTION SYSTEM WITH ADJUSTABLE FLOW CONTROL” (priority 2022, published 2024).
Read-outs that look alike come from different tables or passages of the source. Values belong to the compound of their own block, whether it stands above or below them.

Tests used:
MRSA [1] = assay: Phenotypic QolorAST rapid AST (resazurin reduction); format: cell-based, Staphylococcus aureus; conditions: 10^5 cfu/mL MRSA, antibiotic concentrations, 0-60 min
Method: (§1) Resistant E. coli, Oxacillin-resistant S. aureus, and Cipro. Resistant PA respectively was used. The aliquots were incubated at 37° C. different periods starting from 0 minutes incubation till 60 minutes with a time step of 5 minutes.
(§2) Resistant PA respectively was used. The aliquots were incubated at 37° C. different periods starting from 0 minutes incubation until 60 minutes with a time step of 5 minutes.
(§3) MRSA and PA respectively.

MRSA [2] = assay: QolorAST minimum inhibitory concentration (MIC) test; format: cell-based, Staphylococcus aureus
Method: Ampicillin-resistant E. coli strain mm294 was cultured overnight at 37° C. in Luria broth (LB) media supplemented with 100 μg/mL Ampicillin. […] Next, the bacterial concentration was determined by optical density technique using a Spectronic 21D spectrophotometer. Subsequently, aliquots of different concentrations were prepared for the antibiotic susceptibility testing experiments in LB media. Biotyper spectra (MALDI Bruker).
5×10^5 CFU ml^−1 Oxacillin-resistant S. aureus aliquots were prepared using resazurin/oxacillin solution using different concentrations of oxacillin antibiotic (16 μg/mL, 32 μg/mL, and 64 μg/mL). 5×10^5 CFU ml^−1 Cipro.
A minimum inhibitory concentration (MIC) was performed to study the QolorAST broad applicability in detecting bacterial resistance profiles and ensuring timely and efficient antimicrobial theraby. […] The antibiotics cover major bacterial inhibition mechanisms as inhibition of protein synthesis, cell wall synthesis, and/or DNA synthesis.
QolorAST exploited two methodologies: Manual MIC (MA-MIC) and support vector machine MIC (SVM-MIC). […] The SVM-MIC was carried out with a rbf kernel that was optimized and trained to predict the color change of the preclinical images using our library of bacteria images collected under different conditions including images where color is changed, color transitioning, and no color change. The SVM successfully classified the condition's bacteria-antibiotic in the concentration range studied.

Pseudomonas aeruginosa = assay: Phenotypic QolorAST rapid AST (resazurin reduction); format: cell-based; conditions: 10^5 cfu/mL PA, antibiotic concentrations, 0-60 min
Method: as §1, §2, §3

E. coli [3] = system: E. coli
Method: To evaluate the QolorAST performance in clinical settings, a double-blinded clinical study at the McGill University Health Center (MUHC) was performed. 47 patients suspected of urinary tract infections, admitted to MUHC emergency clinics between August 2022 to August 2023 were tested. Specimens were consented, collected from the patients and the experiments were done in microbiology labs in MUHC. Each specimen were divided in 3 to be tested in parallel in the central laboratory of the hospital (quantification, identification and MIC), in the research laboratory (quantification, identification and MIC for 2 antibiotics) and with QolorAST genotypic/phenotypic assays in microbiology lab at MUHC. The device has 24 chambers where the media/resazurin/antibiotic mixes as well as the patient samples are injected mixed. […] Therefore, reagent loading port was preloaded with media, specific concentration antibiotic and resazurin at final concentration of 0.25 mg/mL and urine was added to urine loading port. Thereafter, by pressing the pushing button the urine was mixed with the rest of solution at a volumetric ratio of 1:4 which would be the starting point for incubation and imaging of the samples. The samples were incubated at 37° C. at different timepoints starting from 0 to 60 minutes with a time interval of 10 minutes and the imaging was performed as described above.

E. coli [4] = assay: Standard broth microdilution MIC on isolates from patient urine specimens; format: cell-based, Escherichia coli
Method: For the standard testing the urine specimens were diluted 1/1000 using CamHB and both the original concentration and a 1/1000 dilution of the specimen were plated on BAP with a 1 μL calibrated loop and incubated for 18-20h at 37 C with 5% CO2. The […] concentration is then calculated for all the isolates coming from each specimen. […] At the end of the process, the inoculum quantification is checked by counted CFU from serial dilutions of the inoculum. A growth positive control (inoculum with no antibiotic), a wild type strain of E. Coli (MG1655) and E. Faecalis are also included and processed in the same way as the isolates for each experiment. Finally, each isolate is plated on BAP to control their monoculture state and to be identified by MALDI.
Samples were tested in parallel using two methods: conventional (Matrix-assisted laser desorption/ionization-time of flight—MALDI/TOF—for bacterial identification and CLSI BMD method for AST) and QolorAST (genotypic for bacterial ID and phenotypic AST). […] Subsequently, we used the images of negative, fastidious, and not fastidious samples to establish a new training for the SVM to classify the specimens into no growth (negative) and growth (positive) classes. We implemented a detection time of 30 mins and a cutoff threshold of 0.6 to differentiate between positive and negative specimens (FIG. 34G).

- QolorAST MIC Manual (MA-MIC) (MRSA [2]): 1 µg/mL
- QolorAST MIC SVM (SVM-MIC) (MRSA [2]): 1 µg/mL
Compound: O=C(O)c1cn(C2CC2)c2cc(N3CCNCC3)c(F)cc2c1=O [Ciprofloxacin]
- QolorAST colour readout over incubation (MRSA [1]): consistent blue color
- resistance or susceptibility (MRSA [2]): susceptibility
- QolorAST colour readout over incubation (Pseudomonas aeruginosa): consistent color change from blue to green

- QolorAST MIC Manual (MA-MIC) (E. coli [3]; Patient # 49, urine specimen): 8
- QolorAST MIC SVM (SVM-MIC) (E. coli [3]; Patient # 49, urine specimen): 8
- QolorAST MIC Manual (MA-MIC) (E. coli [3]; Patient # 50, urine specimen): 8
- QolorAST MIC SVM (SVM-MIC) (E. coli [3]; Patient # 50, urine specimen): 8
- QolorAST MIC Manual (MA-MIC) (E. coli [3]; Patient # 51*, urine specimen): <0.25
- QolorAST MIC SVM (SVM-MIC) (E. coli [3]; Patient # 51*, urine specimen): <0.25
- QolorAST MIC Manual (MA-MIC) (E. coli [3]; Patient # 52, urine specimen): 16
- QolorAST MIC SVM (SVM-MIC) (E. coli [3]; Patient # 52, urine specimen): 16
- QolorAST MIC Manual (MA-MIC) (E. coli [3]; Patient # 53, urine specimen): 4
- QolorAST MIC SVM (SVM-MIC) (E. coli [3]; Patient # 53, urine specimen): 4
- QolorAST MIC Manual (MA-MIC) (E. coli [3]; Patient # 54, urine specimen): 4
- QolorAST MIC SVM (SVM-MIC) (E. coli [3]; Patient # 54, urine specimen): 4
- QolorAST MIC Manual (MA-MIC) (E. coli [3]; Patient # 55, urine specimen): 8
- QolorAST MIC SVM (SVM-MIC) (E. coli [3]; Patient # 55, urine specimen): 8
- QolorAST MIC Manual (MA-MIC) (E. coli [3]; Patient # 56, urine specimen): 8
- QolorAST MIC SVM (SVM-MIC) (E. coli [3]; Patient # 56, urine specimen): 8
- QolorAST MIC Manual (MA-MIC) (E. coli [3]; Patient # 57, urine specimen): 8
- QolorAST MIC SVM (SVM-MIC) (E. coli [3]; Patient # 57, urine specimen): 8
- QolorAST MIC Manual (MA-MIC) (E. coli [3]; Patient # 58, urine specimen): 8
- QolorAST MIC SVM (SVM-MIC) (E. coli [3]; Patient # 58, urine specimen): 8
- QolorAST MIC Manual (MA-MIC) (E. coli [3]; Patient # 59, urine specimen): 16
- QolorAST MIC SVM (SVM-MIC) (E. coli [3]; Patient # 59, urine specimen): 16
- QolorAST MIC Manual (MA-MIC) (E. coli [3]; Patient # 60, urine specimen): 4
- QolorAST MIC SVM (SVM-MIC) (E. coli [3]; Patient # 60, urine specimen): 4
- QolorAST MIC Manual (MA-MIC) (E. coli [3]; Patient # 61, urine specimen): 4
- QolorAST MIC SVM (SVM-MIC) (E. coli [3]; Patient # 61, urine specimen): 4
- QolorAST MIC Manual (MA-MIC) (E. coli [3]; Patient # 62, urine specimen): 6
- QolorAST MIC SVM (SVM-MIC) (E. coli [3]; Patient # 62, urine specimen): 6
- QolorAST MIC Manual (MA-MIC) (E. coli [3]; Patient # 63, urine specimen): 4
- QolorAST MIC SVM (SVM-MIC) (E. coli [3]; Patient # 63, urine specimen): 4
- QolorAST MIC Manual (MA-MIC) (E. coli [3]; Patient # 64, urine specimen): 8
- QolorAST MIC SVM (SVM-MIC) (E. coli [3]; Patient # 64, urine specimen): 8
- QolorAST MIC Manual (MA-MIC) (E. coli [3]; Patient # 65, urine specimen): 8
- QolorAST MIC SVM (SVM-MIC) (E. coli [3]; Patient # 65, urine specimen): 8
- QolorAST MIC Manual (MA-MIC) (E. coli [3]; Patient # 66, urine specimen): 8
- QolorAST MIC SVM (SVM-MIC) (E. coli [3]; Patient # 66, urine specimen): 8
- QolorAST MIC Manual (MA-MIC) (E. coli [3]; Patient # 67*, urine specimen): <0.25
- QolorAST MIC SVM (SVM-MIC) (E. coli [3]; Patient # 67*, urine specimen): <0.25
- QolorAST MIC Manual (MA-MIC) (E. coli [3]; Patient # 68, urine specimen): 8
- QolorAST MIC SVM (SVM-MIC) (E. coli [3]; Patient # 68, urine specimen): 8
- Broth Microdilution MIC (MIC) (E. coli [4]; Patient # 49, E. coli): 8
- Broth Microdilution MIC (MIC) (E. coli [4]; Patient # 50, E. coli): 8
- Broth Microdilution MIC (MIC) (E. coli [4]; Patient # 51*, E. coli): 16
- Broth Microdilution MIC (MIC) (E. coli [4]; Patient # 52, E. coli): 16
- Broth Microdilution MIC (MIC) (E. coli [4]; Patient # 53, E. coli): 6
- Broth Microdilution MIC (MIC) (E. coli [4]; Patient # 54, E. coli): 4
- Broth Microdilution MIC (MIC) (E. coli [4]; Patient # 55, E. coli): 8
- Broth Microdilution MIC (MIC) (E. coli [4]; Patient # 56, E. coli): 8
- Broth Microdilution MIC (MIC) (E. coli [4]; Patient # 57, E. coli): 8
- Broth Microdilution MIC (MIC) (E. coli [4]; Patient # 58, E. coli): 8
- Broth Microdilution MIC (MIC) (E. coli [4]; Patient # 59, E. coli): 16
- Broth Microdilution MIC (MIC) (E. coli [4]; Patient # 60, E. coli): 16
- Broth Microdilution MIC (MIC) (E. coli [4]; Patient # 61, E. coli): 4
- Broth Microdilution MIC (MIC) (E. coli [4]; Patient # 62, E. coli): 6
- Broth Microdilution MIC (MIC) (E. coli [4]; Patient # 63, E. coli): 4
- Broth Microdilution MIC (MIC) (E. coli [4]; Patient # 64, E. coli): 8
- Broth Microdilution MIC (MIC) (E. coli [4]; Patient # 65, E. coli): 8
- Broth Microdilution MIC (MIC) (E. coli [4]; Patient # 66, E. coli): 8
- Broth Microdilution MIC (MIC) (E. coli [4]; Patient # 67*, E. coli): 2
- Broth Microdilution MIC (MIC) (E. coli [4]; Patient # 68, E. coli): 8
Compound: O=C1CN(/N=C/c2ccc([N+](=O)[O-])o2)C(=O)N1 [Nitrofurantoin]
